Broadly, the IC50 is the midpoint of a concentration-inhibition curve. Read a high IC50 as weaker potency.

In assay [1] the target is Pyk2 (Homo sapiens, UniProt Q14289). The assay is described as follows: Kinase assay (LANCE Ultra TR-FRET), Pyk2. The format is biochemical. As to the method:
Kinase assays were conducted in 384-well plates using LANCE ultra 66 time-resolved fluorescence resonance energy transfer (TR-FRET) methods, according to the manufacturer’s instructions (Perkin-Elmer). In brief, each kinase was pre-incubated with a serially diluted compound for 30 min, incubated with ULight poly-GT peptide substrate and ATP for up to 1 h. Thirty minutes after adding Eu-labeled anti-phosphopeptides Ab diluted in LANCE Detection Buffer, LANCE signals were measured with an EnVision multilabel reader (Perkin-Elmer).
On the technique in general: TR-FRET usually uses a lanthanide donor and a delayed reading to cut background.

In assay [2] the target is T1, phosphorylated Syk (p-Syk) in human CD14+ monocytes (Homo sapiens, UniProt P43405).
T1 construct: endogenous in cells; host or cells: Ramos (ATCC), THP-1 (ATCC), human CD14+ monocytes (Lonza)
Kind of assay: p-Syk ELISA in IgG-stimulated human CD14+ monocytes (FcγR signal). The format is cell-based. As for the experimental part: THP-1 and Ramos cell lines and human CD14^+ monocytes were purchased from the American Type Culture Collection (ATCC) and Lonza, respectively. After treatment with Syk inhibitors for 1 h, THP-1 cells and monocytes were stimulated for 15 min with 100 μg/ml human IgG (Invitrogen), and Ramos cells were stimulated with 2 μg/ml anti-human IgM monoclonal Ab (mAb) (Bathyl). Cells were lysed in RIPA buffer containing 1% NP-40, 1% sodium deoxycholate, 0.1% SDS, and a mixture of protease and phosphatase inhibitors (Thermo Scientific). The lysates were assayed by standard immunoblotting methods and ELISA. Primary Abs used for immunoblotting were anti-phospho-Syk ([…]), anti-phospho-Vav (Y174), anti-phospho-PLCγ1 (Y1217) and anti-phospho-BLNK (Y96) Abs (all from Cell Signaling). ELISAs to detect phospho-Syk (Y525/526) were performed according to the manufacturer’s protocol (Cell Signaling).
Ramos cells (A), human primary monocytes (B), and THP cells (C) were pretreated with inhibitors at the indicated concentrations and stimulated with anti-human IgM (A) and human IgG (B and C). […] The relative intensities of protein phosphorylation levels were quantitated with reference to each lane of β-actin control bands. (D) Ramos cells, human primary monocytes, and THP cells were treated as in A–C for 24 h and levels of phosphorylated Syk (p-Syk) were measured by ELISA.
Background: In an ELISA, binding on a coated surface is turned into a signal by an enzyme label.

For assay [3], the target named is T2, phosphorylation of Syk in mouse primary B cells (Mus musculus, UniProt P48025).
T2 construct: endogenous in cells; host or cells: mouse primary B cells (splenic CD19+ B cells of C57BL/6 mice)
Kind of assay: p-Syk by FACS in stimulated mouse primary B cells. The format is cell-based. The conditions noted are these: BCR and CD40 stimulation. The text has this: Figure 1: in vitro inhibitory effects of SKI-O-592 and -703 on Syk in B cells and monocytes. Ramos cells (A), human primary monocytes (B), and THP cells (C) were pretreated with inhibitors at the indicated concentrations and stimulated with anti-human IgM (A) and human IgG (B and C). The cells were then lysed and assayed by immunoblotting methods. The relative intensities of protein phosphorylation levels were quantitated with reference to each lane of β-actin control bands. (D) Ramos cells, human primary monocytes, and THP cells were treated as in A–C for 24 h and levels of phosphorylated Syk (p-Syk) were measured by ELISA. (E) Mouse primary B cells were stimulated with anti-IgM mAb for 60 min in the presence or absence of SKI-O-703 and assayed for p-Syk by FACS. A representative FACS profile and data on the dose-response of mean fluorescence intensity (MFI) are shown. The data are representative of two independent experiments.

Assay [4] concerns BALB/c mice. The assay is described as follows: K/BxN serum-transferred arthritis (KSTA) in BALB/c mice. The format is in vivo, mouse. As for the experimental part:
Arthritogenic serum was collected from 8-to-15-week-old K/BxN mice. Eight-week-old male BALB/c mice were injected intraperitoneally (ip) with 100 μl of K/BxN serum to induce arthritis. The mice were treated orally twice daily with 42 or 84 mpk of SKI-O-703 from that day for 9 days. In some experiments, mice were injected ip every 2 days with 400 μg/mouse of the TNF blocker, etanercept (Amgen). Ankle thickness was measured, and arthritic index was determined daily, as described previously. On day 9 post-induction, spleens and draining (inguinal and axillary) lymph nodes (LNs) were removed post mortem and assayed by histopathological and immunologic methods.
Hind paws were removed from KSTA mice, fixed, and decalcified in 5.5% EDTA in phosphate-buffered formalin. The paws were embedded in paraffin, sectioned, and stained with hematoxylin and eosin (H&E). Arthritic changes in the ankle and foot were scored (0–4 scale) and expressed as a histopathologic index, as described previously. Safranine O-stained sections were scored (0–4 scale) and expressed as the score for cartilage erosion, as described.
Single-cell suspensions of spleen and LN cells were prepared as previously described. Joint tissues from hind paws of KSTA mice were dissected free of soft tissue and bones, digested with 100 μg/ml Liberase (Roche) for 45 min at 37 °C, and filtered through a 70-μm-pore cell strainer (SPL Life Sciences) to prepare single cell suspensions of synovial infiltrates. The single cell suspensions were stained with an appropriate combination of mAbs and analyzed by FACS. The mAbs used were: CD138-PE, B220-PerCP or -APC-cy7, FAS-PE, CD19-PerCP or -APC, CD21-FITC or -APC, CD43-APC, CD23-PE-cy7, CD8a-PE, CD25-APC-cy7, CXCR5-biotin, GL7-FITC, CD45.2-FITC, CD27-FITC, Ki-67-FITC, Gr-1-FITC, CD4-FITC or -APC-cy7, phospho-Syk-PE, CD11b-PE or -PerCP, PD-1-APC, CD44-APC-cy7, and F4/80-PerCP mAbs (all from BD Biosciences, eBioscience or Biolegend). Streptavidin-PerCP was purchased from BD Biosciences.

Sequence of Pyk2 (Q14289 whole entry, species assumed): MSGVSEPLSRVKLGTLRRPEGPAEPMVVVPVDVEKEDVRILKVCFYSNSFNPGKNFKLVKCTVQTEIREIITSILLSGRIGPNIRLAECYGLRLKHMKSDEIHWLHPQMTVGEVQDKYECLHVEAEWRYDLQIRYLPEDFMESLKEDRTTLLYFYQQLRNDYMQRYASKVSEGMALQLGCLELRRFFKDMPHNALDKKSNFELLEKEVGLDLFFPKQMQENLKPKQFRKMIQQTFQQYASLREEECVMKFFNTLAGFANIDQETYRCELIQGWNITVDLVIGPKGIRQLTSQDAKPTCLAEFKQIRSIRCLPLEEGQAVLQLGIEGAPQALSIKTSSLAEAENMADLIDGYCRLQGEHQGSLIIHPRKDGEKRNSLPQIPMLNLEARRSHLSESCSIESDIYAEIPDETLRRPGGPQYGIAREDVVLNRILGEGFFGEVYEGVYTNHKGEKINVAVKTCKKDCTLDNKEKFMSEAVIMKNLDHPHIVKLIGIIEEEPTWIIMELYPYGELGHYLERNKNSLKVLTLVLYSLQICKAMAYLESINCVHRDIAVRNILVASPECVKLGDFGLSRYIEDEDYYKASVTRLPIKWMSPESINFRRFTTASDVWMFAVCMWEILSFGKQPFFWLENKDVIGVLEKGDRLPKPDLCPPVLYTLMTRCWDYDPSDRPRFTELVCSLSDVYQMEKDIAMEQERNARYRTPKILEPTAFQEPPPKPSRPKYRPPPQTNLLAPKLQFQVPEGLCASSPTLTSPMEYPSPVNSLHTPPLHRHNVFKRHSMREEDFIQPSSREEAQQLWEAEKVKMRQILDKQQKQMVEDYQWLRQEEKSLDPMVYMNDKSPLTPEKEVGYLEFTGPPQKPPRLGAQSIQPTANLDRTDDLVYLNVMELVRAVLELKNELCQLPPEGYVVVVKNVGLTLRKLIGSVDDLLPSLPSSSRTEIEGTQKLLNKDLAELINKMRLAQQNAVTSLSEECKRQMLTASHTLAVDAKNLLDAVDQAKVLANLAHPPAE
T2 sequence (P48025 whole entry): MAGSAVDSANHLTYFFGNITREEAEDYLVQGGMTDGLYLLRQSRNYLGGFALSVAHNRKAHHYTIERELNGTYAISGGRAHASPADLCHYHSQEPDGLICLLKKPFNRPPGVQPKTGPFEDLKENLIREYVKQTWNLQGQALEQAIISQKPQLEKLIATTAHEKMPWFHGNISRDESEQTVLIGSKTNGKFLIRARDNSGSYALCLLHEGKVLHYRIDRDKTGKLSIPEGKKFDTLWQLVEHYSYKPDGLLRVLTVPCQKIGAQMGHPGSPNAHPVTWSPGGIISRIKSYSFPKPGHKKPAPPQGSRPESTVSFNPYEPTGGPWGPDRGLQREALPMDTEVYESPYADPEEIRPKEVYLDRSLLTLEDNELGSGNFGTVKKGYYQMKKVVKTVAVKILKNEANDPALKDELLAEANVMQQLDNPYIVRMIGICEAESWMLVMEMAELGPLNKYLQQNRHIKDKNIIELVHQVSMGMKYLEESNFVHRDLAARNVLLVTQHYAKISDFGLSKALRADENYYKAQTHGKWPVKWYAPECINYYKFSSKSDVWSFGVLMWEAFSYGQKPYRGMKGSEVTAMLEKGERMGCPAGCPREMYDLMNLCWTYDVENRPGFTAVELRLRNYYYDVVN

`Cc1nn(-c2ccnc(Nc3ccc4c(c3)c(C(=O)C3CC3)cn4C)n2)cc1CN1C[C@H](O)CO1` [SKI-O-592]: the “Ratio to Syk (Pyk2)” value in assay [1] (IC50 ratio to Syk) is 115. Moreover, the half-inhibitory concentration (IC50) was 709 nM in assay [1] (kinase activity, TR-FRET) and 191 nM in assay [2].

`CS(=O)(=O)O.CS(=O)(=O)O.Cc1nn(-c2ccnc(Nc3ccc4c(c3)c(C(=O)C3CC3)cn4C)n2)cc1CN1C[C@H](O)CO1` [SKI-O-703, (S)-cyclopropyl(5-((4-(4-((4-hydroxyisoxazolidin-2-yl)methyl)-3-methyl-1H-pyrazol-1-yl)pyrimidin-2-yl)amino)-1-methyl-1H-indol-3-yl)methanone dimesylate]: the “Phosphorylation of Syk in mouse primary B cells” value in assay [3] is reported as “reduced the phosphorylation of Syk”. Further, the “Ankle thickness and arthritic index” value in assay [4] (42 mpk (lower dose) oral twice daily for 9 days) is “the reduction was less pronounced”; in assay [4] (84 mpk oral twice daily for 9 days), “dramatically reduced to the basal level”. Also, the “Progression of KSTA (ankle thickness, arthritic index, inflammatory cell infiltration)” value in assay [4] (42 mpk SKI-O-703 combined with TNF blocker etanercept, synergistic) is “significantly suppressed disease progression”. Moreover, the “Numbers of whole immune cells (CD45+) infiltrated into synovial tissue” value in assay [4] (84 mpk, mainly neutrophils and macrophages) is “significantly reduced”. For the same compound, in assay [4] (high dose (84 mpk), day 9), the “Histopathologic index and cartilage erosion score” value was “significantly reduced”. Besides, the “Joint-draining LN total cells, B cells and GC B cells” value in assay [4] (high dose, day 9, lymphadenopathy disappeared) was “significantly reduced numbers”. Also, the “Progression of KSTA” value in assay [4] (suboptimal dose 42 mpk, alone) is given as “did not significantly inhibit progression of KSTA”.
